Laboratory results as given in US10407467B2, “Polymyxin derivatives and their use in combination therapy together with different antibiotics” (priority 2013, dated 2019).
Counter-ions that a name gives are not always drawn. Bridge positions count the residues as written; N and C are the ends. Square brackets hold non-standard residues; d marks the D form. Peptide text beside a SMILES is read from it. * marks the point of attachment. ξ: configuration not given here. Thr(3ξ) = CC(O)[C@H](N)C(=O)O; Dab = NCC[C@H](N)C(=O)O; Inp = O=C(O)C1CCNCC1; X4 = NC1CCCC1C(=O)*; Ahx = NCCCCCC(=O)O

Experiments:
Type in all cases: cell-based
Pseudomonas aeruginosa [1] = test: MIC, sole activity (no second agent); settings: in the absence of Rifampicin; for MIC P. aeruginosa ATCC 27853: strain ATCC27853; for MIC P. aeruginosa ATCCCRM-9027: strain ATCCCRM-9027; for MIC P. aeruginosa CCUG 59626: strain CCUG 59626
Outline: (§1)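 Inoculum: direct colony suspension (18-24 h MH agar), 0.5 McFarland. Medium: cation-adjusted MHB. Up to 4 strains/species; reported relative to Polymyxin B.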

Escherichia coli [2] = test: MIC, sole activity (no second agent); settings: in the absence of Rifampicin
Outline: as §1

Klebsiella pneumoniae [3] = test: MIC, sole activity (no second agent); settings: in the absence of Rifampicin; for MIC K. pneumoniae ATCC 4352: strain ATCC 4352; for MIC K. pneumoniae ATCC-BAA2146: strain ATCC-BAA2146; for MIC K. pneumoniae CCUG-59348: strain CCUG-59348
Outline: as §1

Acinetobacter baumannii [4] = test: MIC, sole activity (no second agent); settings: in the absence of Rifampicin; for MIC A. baumannii ATCCBAA-747: strain ATCCBAA-747; for MIC A. baumannii NCTC 13423: strain NCTC13423; for MIC A. baumannii ATCC13424: strain ATCC13424
Outline: as §1

Pseudomonas aeruginosa [5] = test: MIC, compound in combination with a second agent (broth microdilution); settings: 1:1 (wt:wt) combination with Rifampicin
Outline: (§2)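 Equal-mass combos (compound in TFA or sulphate salt form plus second agent); direct colony suspension, 0.5 McFarland; duplicate wells; MIC expressed as summed concentration of both drugs.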

Escherichia coli [6] = test: as above; settings: 1:1 (wt:wt) combination with Rifampicin
Outline: as §2

Klebsiella pneumoniae [7] = test: as above; settings: 1:1 (wt:wt) combination with Rifampicin; for MIC K. pneumoniae ATCC 4352: strain ATCC 4352
Outline: as §2

Acinetobacter baumannii [8] = test: as above; settings: 1:1 (wt:wt) combination with Rifampicin
Outline: as §2

[9] = MIC = total drug concentration, strain ATCC CRM-9027
[10] = MIC = total drug concentration, strain ATCC-47
[11] = MIC = total drug concentration, strain CCUG 59626
[12] = MIC = total drug concentration, strain ATCC25922
[13] = MIC = total drug concentration, strain NCTC9001
[14] = MIC = total drug concentration, strain ATCC-BAA-2146
[15] = MIC = total drug concentration, strain CCUG-59348
[16] = MIC = total drug concentration, strain NCTC 13438
[17] = MIC = total drug concentration, strain ATCC BAA-747
[18] = MIC = total drug concentration, strain CCUG57249
[19] = MIC = total drug concentration, strain NCTC 13423
[20] = MIC = total drug concentration, strain NCTC 13424
[21] = MIC = total drug concentration, strain ATCC 27853
[22] = MIC is total drug concentration

MIC P. aeruginosa ATCC 27853 (Pseudomonas aeruginosa [1]) | MIC P. aeruginosa ATCCCRM-9027 (Pseudomonas aeruginosa [1]) | MIC K. pneumoniae ATCC 4352 (Klebsiella pneumoniae [3]) | MIC A. baumannii ATCCBAA-747 (Acinetobacter baumannii [4]) | MIC A. baumannii NCTC 13423 (Acinetobacter baumannii [4]) | MIC P. aeruginosa ATCC CRM-9027 (Pseudomonas aeruginosa [5]; [9]) | MIC P. aeruginosa ATCC-47 (Pseudomonas aeruginosa [5]; [10]) | MIC P. aeruginosa CCUG 59626 (Pseudomonas aeruginosa [5]; [11]) | MIC E. coli ATCC25922 (Escherichia coli [6]; [12]) | MIC E. coli NCTC9001 (Escherichia coli [6]; [13]) | MIC K. pneumoniae ATCC-BAA-2146 (Klebsiella pneumoniae [7]; [14]) | MIC K. pneumoniae CCUG-59348 (Klebsiella pneumoniae [7]; [15]) | MIC K. pneumoniae NCTC 13438 (Klebsiella pneumoniae [7]; [16]) | MIC A. baumannii ATCC BAA-747 (Acinetobacter baumannii [8]; [17]) | MIC A. baumannii CCUG57249 (Acinetobacter baumannii [8]; [18]) | MIC A. baumannii NCTC 13423 (Acinetobacter baumannii [8]; [19]) | MIC A. baumannii NCTC 13424 (Acinetobacter baumannii [8]; [20]) | SMILES | MIC P. aeruginosa CCUG 59626 (Pseudomonas aeruginosa [1]) | MIC K. pneumoniae ATCC-BAA2146 (Klebsiella pneumoniae [3]) | MIC K. pneumoniae CCUG-59348 (Klebsiella pneumoniae [3]) | further results
0.5 micrograms/mL | 0.25 micrograms/mL | 0.5 micrograms/mL | 8 micrograms/mL | 0.5 micrograms/mL | 0.25 micrograms/mL | 0.25 micrograms/mL | 0.125 micrograms/mL | 0.125 micrograms/mL | 0.5 micrograms/mL | 0.5 micrograms/mL | 4 micrograms/mL | 0.5 micrograms/mL | ≤0.06 micrograms/mL | ≤0.06 micrograms/mL | ≤0.06 micrograms/mL | ≤0.06 micrograms/mL | CC(C)C[C@@H]1NC(=O)[C@@H](Cc2ccccc2)NC(=O)[C@H](CCN)NC(=O)[C@@H](NC(=O)[C@H](CCN)NC(=O)[C@@H](NC(=O)CCCCCN)C(C)O)CCNC(=O)[C@H](C(C)O)NC(=O)[C@H](CCN)NC(=O)[C@H](CCN)NC1=O (stereo partly drawn) [Example 2, 6-Aminohexanoyl polymyxin B nonapeptide] (H-[Ahx][Thr(3ξ)][Dab][Dab][Dab][dF]L[Dab][Dab][Thr(3ξ)]; lactam 4-C) |  |  |  | MIC E. coli ATCC25922 (Escherichia coli [2]; strain ATCC25922): 2 micrograms/mL; MIC E. coli NCTC9001 (Escherichia coli [2]; strain NCTC9001): 8 micrograms/mL
0.125 micrograms/mL | 0.125 micrograms/mL | 0.5 micrograms/mL | 1 micrograms/mL | 1 micrograms/mL | 0.25 micrograms/mL | 0.25 micrograms/mL | 0.125 micrograms/mL | ≤0.06 micrograms/mL | 0.25 micrograms/mL | 0.25 micrograms/mL | 4 micrograms/mL | 0.5 micrograms/mL | ≤0.06 micrograms/mL | ≤0.06 micrograms/mL | ≤0.06 micrograms/mL | 0.125 micrograms/mL | CC(C)C[C@@H]1NC(=O)[C@@H](Cc2ccccc2)NC(=O)[C@H](CCN)NC(=O)[C@@H](NC(=O)[C@H](CCN)NC(=O)[C@@H](NC(=O)C2CCCC2N)C(C)O)CCNC(=O)[C@H](C(C)O)NC(=O)[C@H](CCN)NC(=O)[C@H](CCN)NC1=O (stereo partly drawn) [Example 7, (1R,S/2R,S)-2-Aminocyclopentane-carbonyl polymyxin B nonapeptide] (X4-[Thr(3ξ)][Dab][Dab][Dab][dF]L[Dab][Dab][Thr(3ξ)]; lactam 3-C) | 0.125 micrograms/mL | >32 micrograms/mL | >32 micrograms/mL | MIC P. aeruginosa ATCC-47 (Pseudomonas aeruginosa [1]; strain ATCC-47): 1 micrograms/mL; MIC A. baumannii ATCC13424 (Acinetobacter baumannii [4]): 2 micrograms/mL; MIC A. baumannii CCUG57249 (Acinetobacter baumannii [4]; strain CCUG 57249): 2 micrograms/mL; MIC P. aeruginosa ATCC 27853 (Pseudomonas aeruginosa [5]; [21]): 0.125 micrograms/mL; MIC K. pneumoniae ATCC 4352 (Klebsiella pneumoniae [7]; MIC = total drug concentration): 0.125 micrograms/mL

SMILES | MIC P. aeruginosa ATCC 27853 (Pseudomonas aeruginosa [1]) | MIC P. aeruginosa ATCCCRM-9027 (Pseudomonas aeruginosa [1]) | MIC K. pneumoniae ATCC 4352 (Klebsiella pneumoniae [3]) | MIC A. baumannii ATCCBAA-747 (Acinetobacter baumannii [4]) | MIC A. baumannii NCTC 13423 (Acinetobacter baumannii [4]) | MIC P. aeruginosa ATCC CRM-9027 (Pseudomonas aeruginosa [5]; [9]) | MIC P. aeruginosa ATCC-47 (Pseudomonas aeruginosa [5]; [10]) | MIC P. aeruginosa CCUG 59626 (Pseudomonas aeruginosa [5]; [11]) | MIC E. coli ATCC25922 (Escherichia coli [6]; [12]) | MIC E. coli NCTC9001 (Escherichia coli [6]; [13]) | MIC K. pneumoniae ATCC-BAA-2146 (Klebsiella pneumoniae [7]; [14]) | MIC K. pneumoniae CCUG-59348 (Klebsiella pneumoniae [7]; [15]) | MIC K. pneumoniae NCTC 13438 (Klebsiella pneumoniae [7]; [16]) | MIC A. baumannii ATCC BAA-747 (Acinetobacter baumannii [8]; [17]) | MIC A. baumannii CCUG57249 (Acinetobacter baumannii [8]; [18]) | MIC A. baumannii NCTC 13423 (Acinetobacter baumannii [8]; [19]) | MIC A. baumannii NCTC 13424 (Acinetobacter baumannii [8]; [20]) | MIC P. aeruginosa CCUG 59626 (Pseudomonas aeruginosa [1]) | MIC K. pneumoniae ATCC-BAA2146 (Klebsiella pneumoniae [3]) | MIC K. pneumoniae CCUG-59348 (Klebsiella pneumoniae [3]) | further results
CC(C)C[C@@H]1NC(=O)[C@@H](Cc2ccccc2)NC(=O)[C@H](CCN)NC(=O)[C@@H](NC(=O)[C@H](CCN)NC(=O)[C@@H](NC(=O)C2CCNCC2)C(C)O)CCNC(=O)[C@H](C(C)O)NC(=O)[C@H](CCN)NC(=O)[C@H](CCN)NC1=O (stereo partly drawn) [Example 29, 4-piperidinecarbonyl polymyxin B nonapeptide, trifluoroacetate] (H-[Inp][Thr(3ξ)][Dab][Dab][Dab][dF]L[Dab][Dab][Thr(3ξ)]; lactam 4-C) |  |  |  |  |  | 0.125 micrograms/mL | 0.25 micrograms/mL | 0.125 micrograms/mL | 0.125 micrograms/mL | 0.25 micrograms/mL | 0.25 micrograms/mL | 4 micrograms/mL | 0.5 micrograms/mL | ≤0.06 micrograms/mL | 0.125 micrograms/mL | ≤0.06 micrograms/mL | 0.125 micrograms/mL | 0.125 micrograms/mL | >32 micrograms/mL | >32 micrograms/mL | MIC A. baumannii ATCC13424 (Acinetobacter baumannii [4]): 2 micrograms/mL; MIC P. aeruginosa ATCC 27853 (Pseudomonas aeruginosa [5]; [21]): 0.125 micrograms/mL; MIC P. aeruginosa ATCC 27853 (Pseudomonas aeruginosa [5]; [22]): 0.125 micrograms/mL; MIC P. aeruginosa ATCC CRM-9027 (Pseudomonas aeruginosa [5]; [22]): 0.125 micrograms/mL; MIC P. aeruginosa ATCC-47 (Pseudomonas aeruginosa [5]; [22]): 0.25 micrograms/mL; MIC P. aeruginosa CCUG 59626 (Pseudomonas aeruginosa [5]; [22]): 0.125 micrograms/mL; MIC E. coli ATCC25922 (Escherichia coli [6]; [22]): 0.125 micrograms/mL; MIC E. coli NCTC9001 (Escherichia coli [6]; [22]): 0.25 micrograms/mL; MIC K. pneumoniae ATCC 4352 (Klebsiella pneumoniae [7]; MIC = total drug concentration): ≤0.06 micrograms/mL; MIC K. pneumoniae ATCC-BAA-2146 (Klebsiella pneumoniae [7]; [22]): 0.25 micrograms/mL; MIC K. pneumoniae CCUG-59348 (Klebsiella pneumoniae [7]; [22]): 4 micrograms/mL; MIC K. pneumoniae NCTC 13438 (Klebsiella pneumoniae [7]; [22]): 0.5 micrograms/mL; MIC A. baumannii ATCC BAA-747 (Acinetobacter baumannii [8]; [22]): ≤0.06 micrograms/mL; MIC A. baumannii CCUG57249 (Acinetobacter baumannii [8]; [22]): 0.125 micrograms/mL; MIC A. baumannii NCTC 13423 (Acinetobacter baumannii [8]; [22]): ≤0.06 micrograms/mL; MIC A. baumannii NCTC 13424 (Acinetobacter baumannii [8]; [22]): 0.125 micrograms/mL
